Structures are written as SMILES.

System in one series: not listed separately
The series is described as follows: Effect antagonizing adrenaline (mortality). It is filed as in vivo. The following applies: Mus musculus, ip; mice, 300 mg/kg i.p., 36 hours; read-out: Antiadrenaline Effects, % mortality reduction. Here is the method:
(d) Effect antagonizing adrenaline
Male Albino Swiss mice weighing 12-22 g, divided into groups of 10, were treated with the compounds under investigation or with saline (controls) i.p. and then 30 minutes later with adrenaline (treated) at a dose capable of causing death in 100% of the control animals due to ventricular fibrillation and cardiac lesions ensuing from increased heart rate, pressure and oxygen consumption by the myocardium.
Mortality was monitored for 36 hours and the effect of the compounds was expressed in % of survivals versus treated animals.
Turning to `COC(=O)CC(NC(=O)CC(C[N+](C)(C)C)OC(C)=O)C(=O)OC` (stereo not shown) [COCH3; (1,2-dicarbomethoxy ethyl) amino], the responders at 300 mg/kg was 55%.

Take `CCC(=O)OC(CC(=O)NCCS(=O)(=O)[O-])C[N+](C)(C)C` (stereo not shown) [OCOCH2 CH3; 2-sulfonyl ethyl amino]: the responders at 300 mg/kg stood at 70%.

Regarding `CCCC(=O)OC(CC(=O)NCCS(=O)(=O)[O-])C[N+](C)(C)C` (stereo not shown) [OCOCH2CH2CH3; 2-sulfonyl ethyl amino], the responders at 300 mg/kg came out at 50%.

The series is the same for the next values; noted with them: Mus musculus, ip; mice, 450 mg/kg i.p., 36 hours; read-out: Antiadrenaline Effects, % mortality reduction.
Regarding `CC(=O)OC(CC(=O)NCCS(=O)(=O)[O-])C[N+](C)(C)C` (stereo not shown) [COCH3; 2-sulfonyl ethyl amino, acetyl carnitine amide with taurine], the responders at 450 mg/kg was found to be 65%.

System in a further series: not listed separately
The series is described as follows: Anti-arrhythmic (antifibrillation) effect, aconitine-induced arrhythmia. Particulars: Mus musculus, ip, read-out: Antifibrillation Effects, % reduction. It is filed as in vivo, mice. Here is the method:
(c) Anti-arrhythmic effect
In order to evaluate by means of in vivo test the anti-arrhythmic effect exerted by the various carnitine derivatives in addition to and versus the usual in vitro tests, the method described by Nwangwu et al. (Arch. Int. Pharmacodyn., 1977, v. 229, 219) was employed.
This method is carried out by injecting a solution of aconitine into the caudal […] and recording the time of the appearance of arrhythmia and tachycardia from 2 to 60 minutes following the administration of the compounds under investigation.
Regarding `CC(=O)OC(CC(=O)NCCS(=O)(=O)[O-])C[N+](C)(C)C` (stereo not shown) [COCH3; 2-sulfonyl ethyl amino, acetyl carnitine amide with taurine], the inhibition in vivo at 300 mg/kg came out at 70%.

As for `COC(=O)CC(NC(=O)CC(C[N+](C)(C)C)OC(C)=O)C(=O)OC` (stereo not shown) [COCH3; (1,2-dicarbomethoxy ethyl) amino], the inhibition in vivo at 75 mg/kg amounted to 80%.

On to `CCC(=O)OC(CC(=O)NCCS(=O)(=O)[O-])C[N+](C)(C)C` (stereo not shown) [OCOCH2 CH3; 2-sulfonyl ethyl amino], for which the inhibition in vivo at 150 mg/kg was 95%.

On to `CCCC(=O)OC(CC(=O)NCCS(=O)(=O)[O-])C[N+](C)(C)C` (stereo not shown) [OCOCH2CH2CH3; 2-sulfonyl ethyl amino], for which the inhibition in vivo at 50 mg/kg is 60%.

For another series, the system named is isolated rabbit heart. The series is described as follows: Inotropic effect on isolated rabbit heart (Langendorff) after anoxia. Particulars: Oryctolagus cuniculus, 10 min; 10^-5 gl^-1, isolated rabbit heart, 10 minutes after end of anoxia; read-out: Inotropic Effect, % of controls (increased percentage versus controls). Here is the method: Rabbit hearts isolated by Langendorff's method were perfused in a Ringer solution oxygenated at 38.2° C. The isometric […], ECG and coronary flow were recorded using a "Battaglia-Rangoni" polygraph.
Metabolic damage in the heart muscle was induced by removing the oxygen from the perfusion liquid until contractile force was reduced by 80%.
In these conditions of prolonged anoxia myocardial […] glycolysis was slowed down, accompanied by accumulation of catabolic acids due to storage of pyruvic acid and its conversion to lactic acid which cannot be utilized owing to the depression of the pyridinic enzymes, such as lacticodehydrogenase. This affects anaerobic glycolysis involving an ever increasing number of enzymes, with a progressive and increasingly more critical exhaustion of the myocardium.
Thus there is a whole series of cardiac muscle fatigue levels recorded by the pattern of the parameters taken into account i.e. contractile force, coronary output, heart rate and cardiac rhythm. As soon as the contractile force was reduced by 80%, the perfusion liquid was once again oxygenated without adding other compounds (controls) or with the addition of the compounds under investigation at various concentrations.
For the compound `CC(=O)OC(CC(=O)NCCS(=O)(=O)[O-])C[N+](C)(C)C` (stereo not shown) [COCH3; 2-sulfonyl ethyl amino, acetyl carnitine amide with taurine], the activation at 0.01 µg/mL was determined as 62%.

Consider `COC(=O)CC(NC(=O)CC(C[N+](C)(C)C)OC(C)=O)C(=O)OC` (stereo not shown) [COCH3; (1,2-dicarbomethoxy ethyl) amino], for which the activation at 0.01 µg/mL was found to be 48%.

`CCC(=O)OC(CC(=O)NCCS(=O)(=O)[O-])C[N+](C)(C)C` (stereo not shown) [OCOCH2 CH3; 2-sulfonyl ethyl amino]: the activation at 0.01 µg/mL stood at 50%.

Consider `CCCC(=O)OC(CC(=O)NCCS(=O)(=O)[O-])C[N+](C)(C)C` (stereo not shown) [OCOCH2CH2CH3; 2-sulfonyl ethyl amino], for which the activation at 0.01 µg/mL turned out to be 40%.

System in a further series: not listed separately
The experiment in a line: Antagonism to cardiazol (protection from death by convulsions). It is filed as in vivo. Particulars: ip; rat, 50 mg/kg i.p. (head), 5 hours.
`COC(=O)CC(NC(=O)CC(C[N+](C)(C)C)OC(C)=O)C(=O)OC` (stereo not shown) [COCH3; (1,2-dicarbomethoxy ethyl) amino] gave a responders at 50 mg/kg of 75%.

For `CCCC(=O)OC(CC(=O)NCCS(=O)(=O)[O-])C[N+](C)(C)C` (stereo not shown) [OCOCH2CH2CH3; 2-sulfonyl ethyl amino], the responders at 50 mg/kg came out at 58%.

Staying with this series, now noted: ip; rat, 150 mg/kg i.p. (head), 5 hours.
`CC(=O)OC(CC(=O)NCCS(=O)(=O)[O-])C[N+](C)(C)C` (stereo not shown) [COCH3; 2-sulfonyl ethyl amino, acetyl carnitine amide with taurine] returned a responders at 150 mg/kg of 65%.

For the compound `CCC(=O)OC(CC(=O)NCCS(=O)(=O)[O-])C[N+](C)(C)C` (stereo not shown) [OCOCH2 CH3; 2-sulfonyl ethyl amino], the responders at 150 mg/kg was found to be 40%.

System in another series: not listed separately
The experiment in a line: Acute toxicity (LD50), Weil method. Particulars: mouse, in vivo, ip, mice (Table I title); read-out: LD50 i.p.
The LD50 is the dose expected to kill half of the subjects tested. For `CC(=O)OC(CC(=O)NCCS(=O)(=O)[O-])C[N+](C)(C)C` (stereo not shown) [COCH3; 2-sulfonyl ethyl amino, acetyl carnitine amide with taurine], the LD50 amounted to 1500 mg/kg.

In the case of `COC(=O)CC(NC(=O)CC(C[N+](C)(C)C)OC(C)=O)C(=O)OC` (stereo not shown) [COCH3; (1,2-dicarbomethoxy ethyl) amino], the LD50 was 1500 mg/kg.

As for `CCC(=O)OC(CC(=O)NCCS(=O)(=O)[O-])C[N+](C)(C)C` (stereo not shown) [OCOCH2 CH3; 2-sulfonyl ethyl amino], the LD50 turned out to be 1500 mg/kg.

As for `CCCC(=O)OC(CC(=O)NCCS(=O)(=O)[O-])C[N+](C)(C)C` (stereo not shown) [OCOCH2CH2CH3; 2-sulfonyl ethyl amino], the LD50 stood at 1500 mg/kg.

The series is the same for the next values; noted with them: mouse, in vivo; oral, mice (Table I title); read-out: LD50 oral.
For the compound `CC(=O)OC(CC(=O)NCCS(=O)(=O)[O-])C[N+](C)(C)C` (stereo not shown) [COCH3; 2-sulfonyl ethyl amino, acetyl carnitine amide with taurine], the LD50 stood at 4000 mg/kg.

As to `COC(=O)CC(NC(=O)CC(C[N+](C)(C)C)OC(C)=O)C(=O)OC` (stereo not shown) [COCH3; (1,2-dicarbomethoxy ethyl) amino], the LD50 came out at 4200 mg/kg.

In the case of `CCC(=O)OC(CC(=O)NCCS(=O)(=O)[O-])C[N+](C)(C)C` (stereo not shown) [OCOCH2 CH3; 2-sulfonyl ethyl amino], the LD50 was 4000 mg/kg.

Take `CCCC(=O)OC(CC(=O)NCCS(=O)(=O)[O-])C[N+](C)(C)C` (stereo not shown) [OCOCH2CH2CH3; 2-sulfonyl ethyl amino]: the LD50 turned out to be 4000 mg/kg.

System in a further series: not listed separately
The experiment in a line: Effect on spontaneous motility (ANIMEX). Particulars: Mus musculus, ip, 0.5 h; mice, 50 mg/kg i.p.; control 850 ± 65 in 30 min; read-out: Spontaneous motility, % increase versus controls. Format: in vivo. Here is the method:
(g) Effect on spontaneous motility
Male Albino Swiss mice weighing 18-22 g, were divided into two groups of 5 and caged for at least 1 week. One group received the compounds under investigation and the other group (control group) was given the vehicle. The animals remained in their cages and were placed on the ANIMEX (Farad-Sweden) apparatus which recorded the movements for two 30-minute intervals beginning from 5 minutes after administration of the compounds.
Table II gives the results expressed as percentage variation in the number of spontaneous movements of the treated animals versus those of the control animals.
For `CC(=O)OC(CC(=O)NCCS(=O)(=O)[O-])C[N+](C)(C)C` (stereo not shown) [COCH3; 2-sulfonyl ethyl amino, acetyl carnitine amide with taurine], the change in vivo at 50 mg/kg worked out at 25%.

On to `COC(=O)CC(NC(=O)CC(C[N+](C)(C)C)OC(C)=O)C(=O)OC` (stereo not shown) [COCH3; (1,2-dicarbomethoxy ethyl) amino], for which the change in vivo at 50 mg/kg was determined as 60%.

In the case of `CCC(=O)OC(CC(=O)NCCS(=O)(=O)[O-])C[N+](C)(C)C` (stereo not shown) [OCOCH2 CH3; 2-sulfonyl ethyl amino], the change in vivo at 50 mg/kg was determined as 40%.

With `CCCC(=O)OC(CC(=O)NCCS(=O)(=O)[O-])C[N+](C)(C)C` (stereo not shown) [OCOCH2CH2CH3; 2-sulfonyl ethyl amino], the change in vivo at 50 mg/kg stood at 43%.

System in another series: not listed separately
The experiment in a line: Interaction with barbiturates (EVIPAN, loss of righting reflex). Format: in vivo. Particulars: Mus musculus, ip; mice, 50 mg/kg i.p. (head), EVIPAN 75 mg/kg; read-out: Barbituric interaction, % reduction of RR (righting reflex) loss.
For `CCCC(=O)OC(CC(=O)NCCS(=O)(=O)[O-])C[N+](C)(C)C` (stereo not shown) [OCOCH2CH2CH3; 2-sulfonyl ethyl amino], the inhibition in vivo at 50 mg/kg was determined as 70%.

Still in this series, the particulars now being: Mus musculus, ip; mice, 100 mg/kg i.p. (head), EVIPAN 75 mg/kg; read-out: Barbituric interaction, % reduction of RR (righting reflex) loss.
Turning to `CC(=O)OC(CC(=O)NCCS(=O)(=O)[O-])C[N+](C)(C)C` (stereo not shown) [COCH3; 2-sulfonyl ethyl amino, acetyl carnitine amide with taurine], the inhibition in vivo at 100 mg/kg amounted to 30%.

With `CCC(=O)OC(CC(=O)NCCS(=O)(=O)[O-])C[N+](C)(C)C` (stereo not shown) [OCOCH2 CH3; 2-sulfonyl ethyl amino], the inhibition in vivo at 100 mg/kg came out at 60%.

These data come from US4443475A, “Amides of acyl-carnitines, process for preparing same and pharmaceutical compositions containing such amides” (priority 1979, dated 1984).
